Test results published in ChEMBL document CHEMBL1201862, “PubChem BioAssay data set” (2004).
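Method: 48-hour compound exposure of cells in 96-well plates, five concentrations, linear interpolation of endpoints. At the GI50, growth is halved.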 The source made the active and inactive calls. No stated cut-off is given here; in the data, active = GI50 up to about 1.1 µM and inactive = higher.

Legend:
Assay in all cases: growth of human tumour cells (NCI), 48 h
HT-29 = tested on: HT-29
SF-539 = tested on: SF-539
UACC-62 = tested on: UACC-62
MDA-MB-435 = tested on: MDA-MB-435
Hs-578T = tested on: Hs-578T
BT-549 = tested on: BT-549
ACHN = tested on: ACHN
UO-31 = tested on: UO-31
DU-145 = tested on: DU-145
HCC 2998 = tested on: HCC 2998
NCI-H460 = tested on: NCI-H460
SNB-19 = tested on: SNB-19
HL-60 = tested on: HL-60
EKVX = tested on: EKVX
UACC-257 = tested on: UACC-257
SNB-75 = tested on: SNB-75
T47D = tested on: T47D
RXF 393 = tested on: RXF 393
CCRF-CEM = tested on: CCRF-CEM
NCI-H522 = tested on: NCI-H522
NCI-H226 = tested on: NCI-H226
MOLT-4 = tested on: MOLT-4
M14 = tested on: M14
SK-MEL-5 = tested on: SK-MEL-5
HCT-116 = tested on: HCT-116
NCI-H23 = tested on: NCI-H23
SN12C = tested on: SN12C
SF-268 = tested on: SF-268
OVCAR-8 = tested on: OVCAR-8
NCI/ADR-RES = tested on: NCI/ADR-RES
RPMI-8226 = tested on: RPMI-8226
A498 = tested on: A498
U-251 = tested on: U-251
A549 = tested on: A549
MCF7 = tested on: MCF7
Malme-3M = tested on: Malme-3M
OVCAR-3 = tested on: OVCAR-3
HCT-15 = tested on: HCT-15
COLO 205 = tested on: COLO 205
HOP-62 = tested on: HOP-62
SK-MEL-2 = tested on: SK-MEL-2
LOX IMVI = tested on: LOX IMVI
OVCAR-4 = tested on: OVCAR-4
SK-MEL-28 = tested on: SK-MEL-28
K562 = tested on: K562
MDA-MB-231 = tested on: MDA-MB-231
SK-OV-3 = tested on: SK-OV-3
IGROV-1 = tested on: IGROV-1
MDA-N = tested on: MDA-N
SR = tested on: SR
KM12 = tested on: KM12
HOP-92 = tested on: HOP-92
TK-10 = tested on: TK-10
PC-3 = tested on: PC-3
SF-295 = tested on: SF-295
SW-620 = tested on: SW-620
786-0 = tested on: 786-0
OVCAR-5 = tested on: OVCAR-5

Q: Which GI50 (HT-29) does the source give for `C/C(=N\NC(=S)NCCCNC(=S)N/N=C(\C)c1ccccn1)c1ccccn1` here?
A: Its GI50 is 2000 nM (inactive).

Q: What about the GI50 (SF-539) of the same compound?
A: The GI50 was 2420 nM (inactive).

Q: What about the GI50 (UACC-62) of the same compound?
A: The GI50 was 2660 nM (inactive).

Q: And the GI50 (MDA-MB-435)?
A: Its GI50 is 3230 nM (inactive).

Q: And the GI50 (Hs-578T)?
A: Its GI50 is > 47600 nM (inactive).

Q: And the GI50 (BT-549)?
A: Its GI50 is 3130 nM (inactive).

Q: And the GI50 (ACHN)?
A: Its GI50 is 1400 nM (inactive).

Q: What about the GI50 (UO-31) of the same compound?
A: The GI50 was 1830 nM (inactive).

Q: What about the GI50 (DU-145) of the same compound?
A: The GI50 was 2260 nM (inactive).

Q: What about the GI50 (HCC 2998) of the same compound?
A: The GI50 was 5710 nM (inactive).

Q: And the GI50 (NCI-H460)?
A: Its GI50 is 1290 nM (inactive).

Q: And the GI50 (SNB-19)?
A: Its GI50 is > 34800 nM (inactive).

Q: What about the GI50 (HL-60) of the same compound?
A: Its GI50 is 1350 nM (inactive).

Q: And the GI50 (EKVX)?
A: Its GI50 is 3790 nM (inactive).

Q: And the GI50 (UACC-257)?
A: Its GI50 is 2750 nM (inactive).

Q: What about the GI50 (SNB-75) of the same compound?
A: The GI50 was 2950 nM (inactive).

Q: And the GI50 (T47D)?
A: Its GI50 is 3510 nM (inactive).

Q: What about the GI50 (RXF 393) of the same compound?
A: The GI50 was 3030 nM (inactive).

Q: What about the GI50 (CCRF-CEM) of the same compound?
A: Its GI50 is 1160 nM (inactive).

Q: And the GI50 (NCI-H522)?
A: Its GI50 is 1370 nM (inactive).

Q: And the GI50 (NCI-H226)?
A: The GI50 was 6920 nM (inactive).

Q: What about the GI50 (MOLT-4) of the same compound?
A: The GI50 was 2510 nM (inactive).

Q: What about the GI50 (M14) of the same compound?
A: The GI50 was 733 nM (active).

Q: And the GI50 (SK-MEL-5)?
A: Its GI50 is 2020 nM (inactive).

Q: What about the GI50 (HCT-116) of the same compound?
A: Its GI50 is 2880 nM (inactive).

Q: What about the GI50 (NCI-H23) of the same compound?
A: Its GI50 is 7330 nM (inactive).

Q: And the GI50 (SN12C)?
A: The GI50 was 1980 nM (inactive).

Q: What about the GI50 (SF-268) of the same compound?
A: The GI50 was 2620 nM (inactive).

Q: What about the GI50 (OVCAR-8) of the same compound?
A: The GI50 was 1710 nM (inactive).

Q: What about the GI50 (NCI/ADR-RES) of the same compound?
A: Its GI50 is 2220 nM (inactive).

Q: What about the GI50 (RPMI-8226) of the same compound?
A: The GI50 was 4200 nM (inactive).

Q: And the GI50 (A498)?
A: The GI50 was 4970 nM (inactive).

Q: What about the GI50 (U-251) of the same compound?
A: Its GI50 is 2770 nM (inactive).

Q: And the GI50 (A549)?
A: The GI50 was 3480 nM (inactive).

Q: What about the GI50 (MCF7) of the same compound?
A: Its GI50 is 3340 nM (inactive).

Q: What about the GI50 (Malme-3M) of the same compound?
A: The GI50 was 2420 nM (inactive).

Q: And the GI50 (OVCAR-3)?
A: The GI50 was 2950 nM (inactive).

Q: What about the GI50 (HCT-15) of the same compound?
A: Its GI50 is 1300 nM.

Q: And the GI50 (COLO 205)?
A: Its GI50 is 1800 nM (inactive).

Q: And the GI50 (HOP-62)?
A: The GI50 was 1940 nM (inactive).

Q: What about the GI50 (SK-MEL-2) of the same compound?
A: Its GI50 is 2060 nM (inactive).

Q: And the GI50 (LOX IMVI)?
A: Its GI50 is 2810 nM (inactive).

Q: What about the GI50 (OVCAR-4) of the same compound?
A: The GI50 was 5280 nM (inactive).

Q: And the GI50 (SK-MEL-28)?
A: The GI50 was 4990 nM (inactive).

Q: And the GI50 (K562)?
A: The GI50 was 4060 nM (inactive).

Q: And the GI50 (MDA-MB-231)?
A: Its GI50 is 6210 nM (inactive).

Q: And the GI50 (SK-OV-3)?
A: The GI50 was 2010 nM (inactive).

Q: And the GI50 (IGROV-1)?
A: Its GI50 is 3900 nM (inactive).

Q: And the GI50 (MDA-N)?
A: The GI50 was 9270 nM (inactive).

Q: And the GI50 (SR)?
A: Its GI50 is 968 nM (active).

Q: What about the GI50 (KM12) of the same compound?
A: Its GI50 is 2940 nM (inactive).

Q: What about the GI50 (HOP-92) of the same compound?
A: Its GI50 is 6730 nM (inactive).

Q: What about the GI50 (TK-10) of the same compound?
A: Its GI50 is 619 nM (active).

Q: What about the GI50 (PC-3) of the same compound?
A: Its GI50 is 9100 nM (inactive).

Q: What about the GI50 (SF-295) of the same compound?
A: The GI50 was 5270 nM (inactive).

Q: And the GI50 (SW-620)?
A: Its GI50 is 22500 nM (inactive).

Q: And the GI50 (786-0)?
A: Its GI50 is 617 nM (active).

Q: What about the GI50 (OVCAR-5) of the same compound?
A: Its GI50 is 7940 nM (inactive).
